Tested on: α7 integrin promoter
Assay: muscle cell-based assay: α7βgal+/− myoblasts/myotubes, LacZ reporter, β-galactosidase cleavage of FDG
Parameters: species or system mouse; Results in α7+/− β-galactosidase assay: scale not given here
Conditions: for Results in α7+/− β-galactosidase assay / Result in α7+/− β-galactosidase assay: Myoblasts; for Results in a α7+/− β-galactosidase assay, Myotubes, 0.5 uM: compound at 0.5 uM; for Results in a α7+/− β-galactosidase assay, Myotubes, 1 uM: compound at 1 uM; for Results in a α7+/− β-galactosidase assay, Myotubes, 5 uM: compound at 5 uM; for Results in a α7+/− β-galactosidase assay, Myotubes, 10 uM: compound at 10 uM; for Results in a α7+/− β-galactosidase assay, Myotubes, 20 uM: compound at 20 uM; for Results in a α7+/− β-galactosidase assay, Myotubes, 40 uM: compound at 40 uM; for AC50 / Emax / EC50: Mus musculus; for AC50: read-out: Fit Log AC50 (converted); for Emax: read-out: Max Response [%]; for Fit Curve Class: key not given; for EC50: given as log AC50 (negative values), read-out: Fit LogAC50 (converted)
In short: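 Fluorescein generated from FDG by β-galactosidase reports α7 integrin promoter activity in differentiated myoblasts from α7+/− LacZ knock-in pups. Screening hits then went to dose-response, western blotting and a myostatin counterscreen.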

[1] = Table 12, log of AC50, given with negative sign, unit of AC50 not given
[2] = Table 12, fitted activity at zero concentration
[3] = Table 12 Compound data, concentration-response curve fit
[4] = curve fit, activity at zero concentration

Row | SMILES | Results in a α7+/− β-galactosidase assay, Myotubes, 0.5 uM | Results in a α7+/− β-galactosidase assay, Myotubes, 1 uM | Results in a α7+/− β-galactosidase assay, Myotubes, 5 uM | Results in a α7+/− β-galactosidase assay, Myotubes, 10 uM | Results in a α7+/− β-galactosidase assay, Myotubes, 20 uM | Results in a α7+/− β-galactosidase assay, Myotubes, 40 uM | Fit HillSlope (Table 12, curve fit) | Fit Zero Activity [%] [2] [%] | Fit Curve Class (Table 12) | Score [3] | further results
1 | COC(=O)Cn1c(=O)c2c(nc3n2CC(C)CN3Cc2ccccc2)n(C)c1=O (stereo not shown) [drawing 623] |  |  |  |  |  |  |  |  |  |  | Results in α7+/− β-galactosidase assay (0.5 uM): −0.176; Results in α7+/− β-galactosidase assay (1 uM): −0.2606; Results in α7+/− β-galactosidase assay (5 uM): −0.02637; Results in α7+/− β-galactosidase assay (10 uM): −0.1756; Results in α7+/− β-galactosidase assay (20 uM): −0.2725; Results in α7+/− β-galactosidase assay (40 uM): −0.3826
2 | Oc1nc(SCc2ccc(Cl)cc2)nc2ccsc12 [drawing 427] | 0.03102 | −0.01338 | −0.1454 | 0.05532 | −0.03447 | −0.1688 |  |  |  |  | 
3 | O=C(O)c1cc(/N=C/c2c(O)oc3ccccc3c2=O)ccc1O [Compound 48] |  |  |  |  |  |  | 1.7137 | −35.4511 | 2.1 | 46 | AC50 [1]: 7.08 µM; Emax: 165%
4 | CCOC(=O)Cc1csc(NC(=S)NC(=O)c2cc(OC)c(OC)c(OC)c2)n1 [Compound 20] |  |  |  |  |  |  | 2.3031 | −17.7204 | 1.1 | 84 | AC50 [1]: 3.55 µM; Emax: 82.9%
5 | Cc1cc(C)c(/C=C2\C(=O)Nc3ccccc32)[nH]1 [drawing 721] |  |  |  |  |  |  |  |  |  |  | Result in α7+/− β-galactosidase assay (0.5 uM): −0.05673; Result in α7+/− β-galactosidase assay (1 uM): −0.01961; Result in α7+/− β-galactosidase assay (5 uM): −0.2468; Result in α7+/− β-galactosidase assay (10 uM): −0.2855; Result in α7+/− β-galactosidase assay (20 uM): −0.1121; Result in α7+/− β-galactosidase assay (40 uM): −0.2422
6 | CC(O)CNc1nc2c(c(=O)n(Cc3ccc(Br)cc3)c(=O)n2C)n1C (stereo not shown) [drawing 372] | 0.1594 | 0.164 | −0.05597 | −0.08357 | −0.2604 | −0.369 |  |  |  |  | 
7 | Cc1ccc(OCC(=O)N2CCN(S(=O)(=O)c3ccc4c(c3)OCCO4)CC2)c(C)c1 [Compound 27] |  |  |  |  |  |  | 2.2526 | −26.8995 | 1.1 | 83 | AC50 [1]: 2 µM; Emax: 53.8%
8 | O=C(Nc1ccccc1OC(=O)c1ccc(Cl)cc1)c1ccc(Cl)cc1 [drawing 609] |  |  |  |  |  |  |  |  |  |  | Results in α7+/− β-galactosidase assay (0.5 uM): 0.03104; Results in α7+/− β-galactosidase assay (1 uM): 0.01493; Results in α7+/− β-galactosidase assay (5 uM): −0.04769; Results in α7+/− β-galactosidase assay (10 uM): −0.1879; Results in α7+/− β-galactosidase assay (20 uM): 0.6323; Results in α7+/− β-galactosidase assay (40 uM): −0.3765
9 | CN(C)C1(C/N=C/c2cc(Cl)cc([N+](=O)[O-])c2O)CCCCC1 [Compound 101] |  |  |  |  |  |  | 1.6604 | −15.8708 | 2.1 | 43 | Fit Infinite Activity [%] (Table 12, fitted activity at infinite concentration): 115.659%; Fit Log AC50 [1]: −5.05
10 | c1ccc(-c2cn3c4c(sc3n2)CCCC4)cc1 [drawing 490] | −0.06339 | 0.06029 | −0.3683 | −0.08198 | −0.09547 | 0.1666 |  |  |  |  | 
11 | c1ccc(CN2CCCC3(CCCN(Cc4nc(CC5CC5)no4)C3)C2)cc1 (stereo not shown) [Compound 200] |  |  |  |  |  |  |  |  |  |  | EC50: 8.91 µM; Score (Table 12 compound data): 42; Fit Curve Class (curve class number): 2.1; Fit HillSlope (curve fit): 1.4781; Fit Zero Activity [%] [4]: −42.0662%
12 | O=[N+]([O-])c1cccc(S(=O)(=O)N2CCN(S(=O)(=O)N3CCOCC3)CC2)c1 [Compound 158] |  |  |  |  |  |  |  |  |  |  | EC50: 10 µM; Score (Table 12 compound data): 42; Fit Curve Class (curve class number): 2.2; Fit HillSlope (curve fit): 1.9282; Fit Zero Activity [%] [4]: −0.5234%
13 | Cc1ccccc1S(=O)(=O)N1C[C@H]2CON(C)[C@H]2C[C@H]1c1cccc(-c2ccccc2)c1 [drawing 436] | 0.01204 | 0.03174 | −0.2012 | −0.2418 | −0.3306 | −0.5892 |  |  |  |  | 

— patent US10028992B2, “Methods of treating muscular dystrophy” (BOARD OF REGENTS OF THE NEVADA SYSTEM OF HIGHER EDUCATION …, priority 2012, dated 2018)
